Values quoted from earlier work as cited in patent US11725135B2 (priority 2019, dated 2023).

Compound | concentration above which precipitation occurs / solubility
F[Si-2](F)(F)(F)(F)F.[K+].[K+] [Example K2SiF6, potassium hexafluorosilicate] | 1800 µg/mL
F[Si-2](F)(F)(F)(F)F.[Na+].[Na+] [Na2SiF6] | 6400 µg/mL
